Measurements taken from ChEMBL document CHEMBL4400573, “Synthesis and structure-activity relationships of pyrazine-2-carboxamide derivatives as novel echinoderm microtubule-associated protein-like 4 (EML4)-anaplastic lymphoma kinase (ALK) inhibitors” (Bioorg Med Chem, 2019).
Converted amounts (≈) assume the structure as drawn.

Key:
[1] = Inhibition of EML4-fused ALK variant 1 (unknown origin) expressed in mouse BAF3 cells using peptide substrate measured after 1 hr by HTRF assay; assay type: cell-based, Homo sapiens
BaF3 = assay: Antiproliferative activity against mouse BAF3 cells expressing EML4-fused ALK variant 1 assessed as reduction in cell viability measured after 2 days by alamar blue assay; assay type: functional, cell-based; details: BaF3, 48 h
[2] = Toxicity in Balb/c nude mouse xenografted with mouse 3T3 cells expressing EML4-fused ALK variant 1 assessed as effect on body weight at 10 mg/kg, po administered once daily for 5 days; assay type: organism-based; details: in vivo, 120 h
NIH3T3 [3] = assay: Antitumor activity against mouse 3T3 cells expressing EML4-fused ALK variant 1 xenografted in Balb/c nude mouse assessed as tumor growth inhibition at 10 mg/kg, po administered once daily for 5 days measured post last dose relative to control; assay type: functional; parameters: Activity: scale not given: the % may be the effect or the level left
[4] = Permeability of the compound at pH 6.5 measured after 2 hrs by PAMPA; assay type: ADME; details: read-out: permeability
[5] = Aqueous solubility of the compound in pH 6.8 JP2 fluid measured after 20 hrs by HPLC analysis; assay type: physicochemical
NIH3T3 [6] = assay: Antitumor activity against mouse 3T3 cells expressing EML4-fused ALK variant 1 xenografted in Balb/c nude mouse assessed as tumor regression at 10 mg/kg, po administered once daily for 5 days measured post last dose relative to control; assay type: functional

Row | IC50 [1] | IC50 (BaF3) | SMILES | also measured
1 | 0.8 nM | 12 nM | CCc1nc(C(N)=O)c(Nc2ccc(N3CCC(N4CCN(C)CC4)CC3)c(OC)c2)nc1NC(C)C | –
2 | 0.37 nM | 9.5 nM | CCc1nc(C(N)=O)c(Nc2ccc(N3CCC(N4CCN(C)CC4)CC3)c(OC)c2)nc1N[C@H]1CC[C@H](O)CC1 | Activity [2]: Toxic; Activity (NIH3T3 [3]): 34%; Papp at 2 h [4]: 1.1 ×10⁻⁶ cm/s; solubility at 20 h [5]: ≥ 100 µM
3 | 2.5 nM | 16 nM | CCNc1nc(Nc2ccc(N3CCC(N4CCN(C)CC4)CC3)c(OC)c2)c(C(N)=O)nc1CC | –
4 | 270 nM | – | CS(=O)(=O)c1cccc(Nc2nc(N[C@H]3CC[C@H](O)CC3)cnc2C(N)=O)c1 | –
5 | 17 nM | 68 nM | CCc1nc(C(N)=O)c(Nc2cccc(S(C)(=O)=O)c2)nc1N[C@H]1CC[C@H](O)CC1 | solubility at 20 h [5]: 1.1 µM (≈ 0.477 µg/mL)
6 | 8.9 nM | 85 nM | CCc1nc(C(N)=O)c(Nc2ccc(N3CCC(N4CCN(C)CC4)CC3)cc2OC)nc1N[C@H]1CC[C@H](O)CC1 | solubility at 20 h [5]: ≥ 100 µM
7 | 37 nM | – | CS(=O)(=O)c1cccc(Nc2nc(N[C@H]3CC[C@H](O)CC3)c(C3CC3)nc2C(N)=O)c1 | –
8 | 6.6 nM | 31 nM | CCc1nc(C(N)=O)c(Nc2ccc(N3CCC(N4CCN(C)CC4)CC3)c(OC)c2)nc1N(C)CC | –
9 | 82 nM | – | CS(=O)(=O)c1cccc(Nc2nc(N[C@H]3CC[C@H](O)CC3)c(Cl)nc2C(N)=O)c1 | –
10 | 82 nM | – | CS(=O)(=O)c1cccc(Nc2nc(N[C@H]3CC[C@H](O)CC3)c(Br)nc2C(N)=O)c1 | –
11 | 51 nM | – | Cc1nc(C(N)=O)c(Nc2cccc(S(C)(=O)=O)c2)nc1N[C@H]1CC[C@H](O)CC1 | –
12 | 17 nM | – | COc1cc(N2CCC(N3CCN(C)CC3)CC2)ccc1Nc1ncnc(Nc2ccccc2S(=O)(=O)C(C)C)n1 [ASP-3026] | Activity [2]: Non-Toxic; inhibition in vivo at 10 mg/kg (NIH3T3 [3]; Mus musculus, NIH3T3, po, 120 h, read-out: TGI): 81%
13 | 13 nM | 48 nM | CCc1nc(C(N)=O)c(Nc2ccc(N3CCC(N4CCN(C)CC4)CC3)c(OC)c2)nc1N[C@@H]1CCCC[C@H]1O (racemic) | –
14 | 23 nM | – | CCCc1nc(C(N)=O)c(Nc2cccc(S(C)(=O)=O)c2)nc1N[C@H]1CC[C@H](O)CC1 | –
15 | 1 nM | 9.7 nM | CCc1nc(C(N)=O)c(Nc2ccc(N3CCC(N4CCN(C)CC4)CC3)c(OC)c2)nc1N[C@H]1CC[C@H](OC)CC1 | Activity [2]: Toxic; Papp at 2 h [4]: 21 ×10⁻⁶ cm/s; Activity (NIH3T3 [6]): 62%
